Measurements: patent US20230331707A1, “PROGRAMMED CELL NECROSIS INHIBITOR, PREPARATION METHOD THEREFOR, AND USE THEREOF” (Shanghai Institute of Organic Chemistry, Chinese Academy of …, priority 2020, published 2023)
Read-outs that look alike come from different tables or passages of the source.

Columns and labels:
FADD−/− Jurkat cells = experiment: Inhibition of TNF-induced programmed necrosis of FADD deficient Jurkat cells (Cell Titer-Glo viability); format: cell-based; conditions: for EC50: FADD−/− Jurkat cells
From the text: (§1) The adopted biological assay protocol was: the effect of compounds on programmed necroptosis of TNF-induced FADD (Fas-Associated Death Domain) deficient Jurkat cells and L929 cells.
(§2) In order to verify the inhibitory effect of the compounds of the present invention on programmed cell necrosis at the cellular level, cell types that is closely related to the RIP1 pathway, namely FADD deficient Jurkat cells (human peripheral blood leukemia T cell strain) and L929 cells, were selected. Two different stimulation methods were used: tumor necrosis factor (TNFα) was used alone, or TNFα was used in combination with mitochondria-derived cysteine aspartate activator (SMAC) SM164. Cells viability was calculated by detecting chemiluminescence values, thereby obtaining the biological activity of the compound on the inhibition of programmed cell necrosis.
(§3) Methods: FADD deficient Jurkat cells: FADD deficient Jurkat cells (human peripheral blood leukemia T cell line) were cultured in vitro. After growing to the logarithmic growth phase, the cells were collected, centrifuged at 1000 rpm for 5 min, the supernatant was discarded, and the cell concentration was adjusted to 2.5×10^5/mL. Cells were seeded into 384-well plates, 40 μl per well. 5 μL of SM164 (50 nM) diluted in cell culture medium and 5 μL of each compound were added to the corresponding wells. After pretreatment at 37° C. for 1 h, 5 μL of TNFα (50 ng/mL) diluted in cell culture medium was added to each well of the stimulation group, and 5 μL of the culture medium was added to the control group. The plate was cultured in a cell incubator (37° C., 5% CO2) for 14 h, and […] of Cell Titer-Glo solution was added to each well, then incubated for 30 min at room temperature, and intracellular ATP level was measured by detecting luminescence. The unstimulated DMSO control wells were taken as 100% cell viability. L929 cells: The L929 cells (mouse fibroblasts) were cultured in vitro, digested and diluted to 6.25×10^4/ml, and the cells were seeded into 384-well plates, 40 μl per well. The plate was placed in a cell incubator (37° C., 5% CO2) for 12 hours. 5 μL of SM164 (500 nM) diluted in cell culture medium and 5 μL of each compound were added to the corresponding wells. After pretreatment at 37° C. for 1 h, 5 μL of TNFα (500 ng/mL) diluted in cell culture medium was added to each well of the stimulation group, and 5 μL of the culture medium was added to the control group. After the plate was cultured for 14 h in a cell incubator (37° C., 5% CO2), 15 μl of Cell Titer-Glo solution was added to each well. The plate was incubated at room temperature for 30 min, and intracellular ATP level was measured by detecting luminescence. The unstimulated DMSO control wells were taken as 100% cell viability. EC50 values of the compounds were calculated using Prism Graphpad statistical software.

L929 cells = experiment: Inhibition of TNF-induced programmed necrosis of L929 cells (Cell Titer-Glo viability); format: cell-based, mouse; conditions: Mus musculus, L929, L929 cells
From the text: as §1, §2, §3

[1] = Liver microsomal stability test, mouse; format: in vitro ADME; conditions: mouse, liver microsomes, mouse liver microsomes, NADPH, 37° C.; read-out: T1/2 (min) Mouse
From the text: The adopted biological test protocol was: testing the half-life of the compound in human- or mouse-derived liver microsomes.
Liver microsomes contain many enzymes involved in drug metabolism, especially cytochrome P-450, and therefore it is one of the major tissues involved in drug metabolism in living organisms. There are some correlations between the stability of the compound in liver microsomes and the pharmacogenetic stability thereof in vivo. Therefore, the relative stability of compounds in vivo can be roughly predicted by testing the half-life of different compounds in human- or mouse-derived liver microsomes. The specific methods were as follows:
Methods: 0.75 μL of 0.5 mM samples (compounds to be tested and control verapamil), 9.38 μL of 20 mg/mL liver microsomes (Human and Mouse) were taken and added to 239.88 μL PBS (on ice), and divided into 30 μL/tube samples respectively. The samples were incubated at 37° C. in a constant temperature water bath for 5 min, and then all samples were taken out. At zero-time, control group was added with 90 μL of ice acetonitrile first, and then added with 15 μL of 3 mM NADPH solution sequentially, and incubated at 37° C. in a constant temperature water bath. The corresponding samples were taken out after 5 min, 10 min, 20 min, 30 min and 60 min, respectively, and quenched by adding 90 μL of ice acetonitrile. All samples were centrifuged at 10000 rpm for 10 min, and the supernatants were taken and placed in a liquid phase vial waiting for LC-MS analysis.

[2] = Homo sapiens, Jurkat, 14 h, stimulated with TNFα + SM164, read-out: EC50 (μM) FADD−/− Jurkat cells (human) TNFα + SM164
[3] = Homo sapiens, Jurkat, stimulated with TNFα alone, read-out: EC50 (μM) FADD−/− Jurkat cells (human) TNFα
[4] = stimulated with TNFα + SM164, read-out: EC50 (μM) L929 cells (mouse) TNFα + SM164
[5] = stimulated with TNFα alone, read-out: EC50 (μM) L929 cells (mouse) TNFα

SMILES	EC50 (FADD−/− Jurkat cells; [2]) [nM]	EC50 (FADD−/− Jurkat cells; [3]) [nM]	EC50 (L929 cells; [4]) [nM]	EC50 (L929 cells; [5]) [nM]	half-life at 1 µM [1] [min]	EC50 (FADD−/− Jurkat cells; stimulated with TNFα + SM164, read-out: EC50 (μM) FADD−/− Jurkat cells (human) TNFα + SM164) [nM]	EC50 (FADD−/− Jurkat cells; stimulated with TNFα alone, read-out: EC50 (μM) FADD−/− Jurkat cells (human) TNFα) [nM]	activity of inhibition of programmed necrosis compared with GSK2982772 (FADD−/− Jurkat cells; human FADD-deficient Jurkat cells, TNFα alone or in combination with SM164)
Cn1ncc(C(=O)NCc2ccc(-n3ccc4c(N)ncnc43)cc2)c1Cc1ccccc1 [QY-10-39, N-(4-(4-amino-7H-pyrrolo[2,3-d]pyrimidine-7-yl)benzyl)-5-benzyl-1-methyl-1H-pyrazole-4-carboxamide]	2.95	0.07	96.1	10	25.7	–	–	–
Cn1ncc(C(=O)NCc2ccc(-n3cnc4cc(C(=O)NCCN5CCOCC5)ccc43)cc2)c1Cc1ccccc1 [QY-11-68B]	2.96	0.696	83.4	20.5	34.7	–	–	–
CN(C)CCNC(=O)c1ccc2c(c1)ncn2-c1ccc(CNC(=O)c2cnn(C)c2Cc2ccccc2)cc1 [QY-11-74B]	3.73	0.293	0.687	0.386	–	–	–	–
COc1cc2ncnc(-c3ccc(CNC(=O)c4cnn(C)c4Cc4ccccc4)cc3)c2cc1OC [QY-11-75]	1500	233	> 10000	> 10000	–	–	–	–
Cn1ncc(C(=O)NCc2ccc(-c3ccnc4[nH]ccc34)cc2)c1Cc1ccccc1 [QY-11-79]	747	152	> 10000	> 10000	–	–	–	–
Cn1ncc(C(=O)NCc2ccc(-c3ncnc4[nH]ccc34)cc2)c1Cc1ccccc1 [QY-11-80]	482	35	3460	1970	–	–	–	–
COc1ccc2c(c1)ncn2-c1ccc(CNC(=O)c2cnn(C)c2Cc2ccccc2)cc1 [QY-11-102A]	–	–	0.0793	0.00513	–	0.0649	0.00168	–
COc1ccc2ncn(-c3ccc(CNC(=O)c4cnn(C)c4Cc4ccccc4)cc3)c2c1 [QY-11-102B]	0.306	0.0133	0.424	0.0278	–	–	–	–
CC(NC(=O)c1cnn(C)c1Cc1ccccc1)c1ccc(-n2cnc3c(N)ncnc32)cc1 (centres unmarked) [QY-12-31]	0.254	0.0967	0.569	0.356	–	–	–	–
CNC(=O)c1ccc2c(c1)ncn2-c1ccc(CNC(=O)c2ccc(F)n2Cc2ccccc2)cc1 [QY-12-47]	17.4	1.74	34.4	6	–	–	–	–
N#Cc1ccc(C(=O)NCc2ccc(-n3cnc4c(N)ncnc43)cc2)n1Cc1ccccc1 [QY-12-51]	1860	214	3770	875	–	–	–	–
CC(c1ccc(-n2cnc3c(N)ncnc32)cc1)N1CCc2nn(C)c(Cc3ccccc3)c2C1=O (centres unmarked) [QY-12-90]	0.813	0.13	42.7	2.41	–	–	–	–
C[C@@H](NC(=O)c1cnn(C)c1Cc1ccccc1)c1ccc(-n2cnc3c(N)ncnc32)cc1 [QY-12-97]	132	36.1	219	51.9	–	–	–	–
Cn1nc(Cl)c(C(=O)NCc2ccc(-n3cnc4c(N)ncnc43)cc2)c1Cc1ccccc1 [QY-12-100]	0.734	0.172	4.63	0.458	–	–	–	stronger activity
